Laboratory results as given in patent US20180099931A1 (AbbVie S.à.r.l., priority 2016, published 2018).
Like-named read-outs stand apart in the source and are kept apart here.

Molecular target: T1, F508delCFTR (Homo sapiens, UniProt P13569, DEL508-508)
T1 construct: expressed in transfected cells; host or cells: CFBE41o- human lung-derived epithelial cells (CFBE4lo-F508delCFTR-HRP), doxycycline-inducible
Test: Cell Surface Expression-Horse Radish Peroxidase (CSE-HRP) Assay;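 on Maximum % activity (with co-corrector): co-corrector and positive control are both the same reference corrector at 2 µM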;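 on Maximum % activity (without co-corrector): percent of the 2 µM on-plate positive control corrector response above DMSO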
Format: cell-based
Settings: for Emax / Maximum % activity (with co-corrector): maximum at any tested concentration, normalized to on-plate positive control; for Emax: read-out: Maximum % activity (without co-corrector)

[1] = test compound without co-corrector
[2] = test compound without co-corrector, read-out: EC50 (without co-corrector)
[3] = with co-corrector (2 μM of 3-[(2R,4R)-4-({[1-(2,2-difluoro-1,3-benzodioxol-5-yl)cyclopropyl]carbonyl}amino)-7-methoxy-3,4-dihydro-2H-chromen-2-yl]benzoic acid)
[4] = with co-corrector (2 μM of 3-[(2R,4R)-4-({[1-(2,2-difluoro-1,3-benzodioxol-5-yl)cyclopropyl]carbonyl}amino)-7-methoxy-3,4-dihydro-2H-chromen-2-yl]benzoic acid), read-out: EC50 (with co-corrector)
[5] = CSE-HRP, test compound without co-corrector, read-out: EC50 (without co-corrector)
[6] = CSE-HRP, with co-corrector (2 μM of 3-[(2R,4R)-4-({[1-(2,2-difluoro-1,3-benzodioxol-5-yl)cyclopropyl]carbonyl}amino)-7-methoxy-3,4-dihydro-2H-chromen-2-yl]benzoic acid), read-out: EC50 (with co-corrector)
[7] = CSE-HRP, with co-corrector (2 μM)

T1 sequence (P13569 with tags, fused parts or gaps DEL508-508): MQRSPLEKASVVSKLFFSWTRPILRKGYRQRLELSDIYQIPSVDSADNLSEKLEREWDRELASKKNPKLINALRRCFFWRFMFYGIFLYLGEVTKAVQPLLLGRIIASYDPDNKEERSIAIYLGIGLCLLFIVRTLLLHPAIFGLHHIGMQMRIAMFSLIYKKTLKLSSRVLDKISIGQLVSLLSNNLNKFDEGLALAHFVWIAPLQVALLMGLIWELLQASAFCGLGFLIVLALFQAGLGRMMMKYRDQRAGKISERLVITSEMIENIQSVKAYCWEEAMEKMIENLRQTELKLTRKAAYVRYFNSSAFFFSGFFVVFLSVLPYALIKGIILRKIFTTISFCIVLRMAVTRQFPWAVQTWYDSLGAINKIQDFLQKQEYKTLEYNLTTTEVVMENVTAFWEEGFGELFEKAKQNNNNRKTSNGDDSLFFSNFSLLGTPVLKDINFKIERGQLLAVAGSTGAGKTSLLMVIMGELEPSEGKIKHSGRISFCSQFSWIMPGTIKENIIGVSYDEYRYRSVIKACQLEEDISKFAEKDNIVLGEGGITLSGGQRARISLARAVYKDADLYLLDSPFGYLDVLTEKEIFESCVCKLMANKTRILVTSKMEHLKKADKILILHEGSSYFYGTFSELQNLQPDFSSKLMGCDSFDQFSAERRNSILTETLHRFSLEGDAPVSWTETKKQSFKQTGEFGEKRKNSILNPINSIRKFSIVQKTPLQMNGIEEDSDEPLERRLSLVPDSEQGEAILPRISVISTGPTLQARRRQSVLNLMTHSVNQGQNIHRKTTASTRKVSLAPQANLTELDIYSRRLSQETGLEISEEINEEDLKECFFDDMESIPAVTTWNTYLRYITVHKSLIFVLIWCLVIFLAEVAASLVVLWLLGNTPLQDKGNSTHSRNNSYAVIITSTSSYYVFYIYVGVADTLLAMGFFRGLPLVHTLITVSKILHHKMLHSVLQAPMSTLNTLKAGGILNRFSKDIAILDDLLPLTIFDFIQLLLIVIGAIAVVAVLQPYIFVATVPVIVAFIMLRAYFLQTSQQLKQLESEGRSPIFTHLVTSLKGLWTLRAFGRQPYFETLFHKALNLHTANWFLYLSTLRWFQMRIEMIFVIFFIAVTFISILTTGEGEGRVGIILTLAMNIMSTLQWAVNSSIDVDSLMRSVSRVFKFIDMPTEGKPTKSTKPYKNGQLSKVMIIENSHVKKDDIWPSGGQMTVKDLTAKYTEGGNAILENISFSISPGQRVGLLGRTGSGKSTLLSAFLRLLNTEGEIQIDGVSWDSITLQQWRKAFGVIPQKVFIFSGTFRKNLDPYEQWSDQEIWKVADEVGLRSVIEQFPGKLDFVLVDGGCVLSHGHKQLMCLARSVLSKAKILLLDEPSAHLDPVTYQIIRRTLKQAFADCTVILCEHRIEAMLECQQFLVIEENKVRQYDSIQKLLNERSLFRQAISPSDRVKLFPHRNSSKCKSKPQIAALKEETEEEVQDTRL

SMILES | Emax [1] [%] | EC50 [2] [nM] | Maximum % activity (with co-corrector) [3] | EC50 [4] [nM] | EC50 [5] [nM] | EC50 [6] [nM] | Maximum % activity (with co-corrector) [7] | Emax (CSE-HRP, without co-corrector) [%] | Maximum % activity (with co-corrector) (with co-corrector (2 μM)) | Emax (without co-corrector) [%] | Maximum % activity (with co-corrector) (with co-corrector (2 μM), 2 µM)
COc1cc(C(F)(F)F)cc(N(C)[C@@H]2[C@@H](C(C)(C)C)[C@H](C(=O)O)N(C(=O)C3CCCCC3)[C@@H]2c2ccccc2)n1 (racemic) [III-17] | < 100 | > 10000 | ++ (≥150 and <350) | 1000 to 10000 | – | – | – | – | – | – | –
COc1cc(Cl)ccc1CN[C@@H]1[C@@H](C(C)(C)C)[C@H](C(=O)O)N(C(=O)OC(C)C)[C@@H]1c1cccnc1N(C)C (racemic) [II-29] | – | – | – | – | 1000 to 10000 | 1000 to 10000 | +++ (≥350) | > 200 | – | – | –
COc1ccc(C(C)(C)C)cc1CN[C@H]1[C@H](C(C)(C)C)[C@@H](C(=O)O)N(C(=O)C2CCCCC2)[C@H]1c1ccccc1O [Example I-310] | – | – | – | – | 1000 to 10000 | < 1000 | +++ (≥350) | > 200 | – | – | –
COc1ccc(CC2CCCCC2)cc1CN[C@H]1[C@H](C(C)(C)C)[C@@H](C(=O)O)N(C(=O)C2CCCCC2)[C@H]1c1ccccc1 [III-169] | > 200 | < 1000 | – | < 1000 | – | – | – | – | +++ (≥350) | – | –
COc1cc(C(C)(C)O)ccc1CN[C@H]1[C@H](C(C)(C)C)[C@@H](C(=O)O)N(C(=O)C2CCCCC2)[C@H]1c1ccccc1 [Example I-89] | – | > 10000 | – | > 10000 | – | – | – | – | + (<150) | < 100 | –
COc1nc(C(C)(C)C)ccc1CN[C@H]1[C@H](C(C)(C)C)[C@@H](C(=O)O)N(C(=O)C2CCCC(F)(F)C2)[C@H]1c1ccccc1 (some centres unmarked) [Example I-180] | – | 1000 to 10000 | – | 1000 to 10000 | – | – | – | – | +++ (≥350) | > 200 | –
COc1cc(C(F)(F)F)ccc1CN[C@H]1[C@H](C(C)(C)C)[C@@H](C(=O)O)N(C(=O)C2CCCCC2)[C@H]1c1ccccc1 [Example 8, (2S,3S,4S,5S)-3-tert-butyl-1-(cyclohexanecarbonyl)-4-({[2-methoxy-4-(trifluoromethyl)phenyl]methyl}amino)-5-phenylpyrrolidine-2-carboxylic acid] | – | 1000 to 10000 | – | < 1000 | – | – | – | – | +++ (≥350) | 100 to 200 | –
COc1ncc(C(F)(F)F)cc1CN[C@H]1[C@H](C(C)(C)C)[C@@H](C(=O)O)N(C(=O)[C@@H]2CCCCO2)[C@H]1c1cccc2c1OCC2 [Example I-298] | – | – | – | – | 1000 to 10000 | 1000 to 10000 | +++ (≥350) | 100 to 200 | – | – | –
COc1ncc(C2CCC2)cc1CN[C@H]1[C@H](C(C)(C)C)[C@@H](C(=O)O)N(C(=O)C2CCCCC2)[C@H]1c1ccccc1C [Example 92, (2S,3S,4S,5S)-3-tert-butyl-4-{[(5-cyclobutyl-2-methoxypyridin-3-yl)methyl]amino}-1-(cyclohexanecarbonyl)-5-(2-methylphenyl)pyrrolidine-2-carboxylic acid] | – | < 1000 | – | < 1000 | – | – | – | – | +++ (≥350) | > 200 | –
COc1cc(Cl)ccc1CN[C@@H]1[C@@H](C(C)(C)C)[C@H](C(=O)O)N(C(=O)C2CCCCC2)[C@@H]1c1ccccc1 (racemic) [III-30] | > 200 | 1000 to 10000 | +++ (≥350) | 1000 to 10000 | – | – | – | – | – | – | –
COc1ccc(C(C)(C)C)cc1CN[C@H]1[C@H](C(C)(C)C)[C@@H](C(=O)O)N(C(=O)C2CCCCC2)[C@H]1c1cccnc1OC [Example 17, (2S,3S,4S,5S)-3-tert-butyl-4-{[(5-tert-butyl-2-methoxyphenyl)methyl]amino}-1-(cyclohexanecarbonyl)-5-(2-methoxypyridin-3-yl)pyrrolidine-2-carboxylic acid] | – | 1000 to 10000 | – | < 1000 | – | – | – | – | +++ (≥350) | > 200 | –
COc1ccc(C(C)(C)C)cc1CN[C@H]1[C@H](C(C)(C)C)[C@@H](C(=O)O)N(C(=O)[C@@H]2CCCCO2)[C@H]1c1ccccc1OC(F)F [Example 59, (2S,3S,4S,5S)-3-tert-butyl-4-{[(5-tert-butyl-2-methoxyphenyl)methyl]amino}-5-[2-(difluoromethoxy)phenyl]-1-[(2S)-oxane-2-carbonyl]pyrrolidine-2-carboxylic acid] | – | 1000 to 10000 | – | < 1000 | – | – | – | – | +++ (≥350) | > 200 | –
COc1ncc(C2CCC2)cc1CN[C@H]1[C@H](C(C)(C)C)[C@@H](C(=O)O)N(C(=O)C2CCc3cc(F)ccc3O2)[C@H]1c1ccccc1 (some centres unmarked) [II-476] | 100 to 200 | 1000 to 10000 | +++ (≥350) | 1000 to 10000 | – | – | – | – | – | – | –
COc1ccc(C(F)(F)F)cc1CN[C@H]1[C@H](C(C)(C)OC)[C@@H](C(=O)O)N(C(=O)C2CCCCC2)[C@H]1c1cccnc1N(C)C [II-437] | > 200 | 1000 to 10000 | +++ (≥350) | 1000 to 10000 | – | – | – | – | – | – | –
COc1ncc(C(F)(F)F)cc1N[C@H]1[C@H](C(C)(C)C)[C@@H](C(=O)O)N(C(=O)C2CCCCC2)[C@H]1c1ccccc1 [Example 114, (2S,3S,4S,5S)-3-tert-butyl-1-(cyclohexanecarbonyl)-4-{[2-methoxy-5-(trifluoromethyl)pyridin-3-yl]amino}-5-phenylpyrrolidine-2-carboxylic acid] | – | < 1000 | – | < 1000 | – | – | – | – | +++ (≥350) | < 100 | –
COc1ccc(C2(C(F)(F)F)CC2)cc1CN[C@H]1[C@H](C(C)(C)C)[C@@H](C(=O)O)N(C(=O)C2Cc3ccccc3O2)[C@H]1c1cccnc1N(C)C (single isomer, unassigned) [Example I-175] | – | < 1000 | – | < 1000 | – | – | – | – | – | < 100 | +++ (≥350)

The next lines start with the values.

Emax [1] [%] | EC50 [2] [nM] | Maximum % activity (with co-corrector) [3] | EC50 [4] [nM] | EC50 [5] [nM] | EC50 [6] [nM] | Maximum % activity (with co-corrector) [7] | Emax (CSE-HRP, without co-corrector) [%] | Maximum % activity (with co-corrector) (with co-corrector (2 μM)) | Emax (without co-corrector) [%] | Maximum % activity (with co-corrector) (with co-corrector (2 μM), 2 µM) | SMILES
< 100 | 1000 to 10000 | ++ (≥150 and <350) | 1000 to 10000 | – | – | – | – | – | – | – | COc1ccc(C(F)(F)F)cc1CN[C@@H]1[C@H](C(C)(C)C)[C@@H](C(=O)O)N(C(=O)OC(C)C)[C@H]1c1ccccc1 [II-556]
– | < 1000 | – | < 1000 | – | – | – | – | +++ (≥350) | > 200 | – | COc1ncc(C2CCC2)cc1CN[C@H]1[C@H](C(C)(C)C)[C@@H](C(=O)O)N(C(=O)C2CCCCC2)[C@H]1c1ccccc1 [Example 16, (2S,3S,4S,5S)-3-tert-butyl-4-{[(5-cyclobutyl-2-methoxypyridin-3-yl)methyl]amino}-1-(cyclohexanecarbonyl)-5-phenylpyrrolidine-2-carboxylic acid]
– | – | – | – | 1000 to 10000 | 1000 to 10000 | +++ (≥350) | > 200 | – | – | – | COc1cc(Cl)ccc1CN[C@H]1[C@H](C(C)(C)C)[C@@H](C(=O)O)N(C(=O)[C@H](OC)c2ccccc2)[C@H]1c1ccccc1 (relative stereo) [II-54]
< 100 | > 10000 | ++ (≥150 and <350) | 1000 to 10000 | – | – | – | – | – | – | – | COc1cccc([C@H]2[C@@H](NCc3cc(C(F)(F)F)ccc3OC)[C@H](C(C)(C)C)[C@@H](C(=O)O)N2C(=O)C2(C)CCCOC2)n1 (relative stereo) [III-70]
– | 1000 to 10000 | – | < 1000 | – | – | – | – | +++ (≥350) | > 200 | – | CCCC1(O)CCC(C(=O)N2C(C(=O)O)C(C(C)(C)C)C(NCc3cc(C(C)(C)C)ccc3OC)C2c2ccccc2)CC1 [Example 35, (2S,3S,4S,5S)-3-tert-butyl-4-{[(5-tert-butyl-2-methoxyphenyl)methyl]amino}-1-(cis-4-hydroxy-4-propylcyclohexane-1-carbonyl)-5-phenylpyrrolidine-2-carboxylic acid]
< 100 | 1000 to 10000 | ++ (≥150 and <350) | 1000 to 10000 | – | – | – | – | – | – | – | COc1cc(OC)c(CN[C@@H]2[C@@H](C(C)(C)C)[C@H](C(=O)O)N(C(=O)C3CCCCC3)[C@@H]2c2ccccc2)cc1Cl (racemic) [III-20]
– | 1000 to 10000 | – | 1000 to 10000 | – | – | – | – | +++ (≥350) | 100 to 200 | – | COc1ncc(Cl)cc1CN[C@@H]1[C@@H](C(C)(C)C)[C@H](C(=O)O)N(C(=O)C2CCCCC2)[C@@H]1c1ccccc1 (racemic) [Example I-36]
– | – | – | – | 1000 to 10000 | 1000 to 10000 | +++ (≥350) | 100 to 200 | – | – | – | COc1cc(C(F)(F)F)ccc1CN[C@@H]1[C@@H](C(C)(C)C)[C@H](C(=O)O)N(C(=O)OC(C)C)[C@@H]1c1ccccc1N(C)C (racemic) [II-57]
> 200 | 1000 to 10000 | +++ (≥350) | 1000 to 10000 | – | – | – | – | – | – | – | COc1ccc(C(C)(C)C)cc1CN[C@H]1[C@H](C(C)(C)C)[C@@H](C(=O)O)N(C(=O)C2CC3C(CC2C)C3(C)C)[C@H]1c1ccccc1 (some centres unmarked) [II-376]
< 100 | > 10000 | + (<150) | 1000 to 10000 | – | – | – | – | – | – | – | CO[C@H](C(=O)N1[C@H](c2cccnc2N(C)C)[C@H](Nc2cc(C(F)(F)F)cc(C)n2)[C@@H](C(C)(C)C)[C@@H]1C(=O)O)c1ccccc1 (racemic) [III-90]
